By IC50 is commonly meant the midpoint of a concentration-inhibition curve.

Format in all cases: biochemical
The target in one assay is T1, BTK (Homo sapiens, UniProt Q06187).
T1 construct: purified from insect cells as a full-length construct containing a N-terminal 6×-His tag; His6 (N); host or cells: insect cells (baculovirus Sf21)
The assay is described as follows: Btk in vitro inhibitory activity (kinase assay by one of Methods A, B or C). The protocol: (§1) Btk kinase activity is determined using a time-resolved fluorescence resonance energy transfer (TR-FRET) methodology. Measurements are performed in a reaction volume of 50 μL using 96-well assay plates. Kinase enzyme, inhibitor, ATP (at the Km for the kinase), and 1 peptide substrate (Biotin-AVLESEEELYSSARQ-NH2) are incubated in a reaction buffer composed of 20 mM Tris, 50 mM NaCl, MgCl2 (5-25 mM depending on the kinase), MnCl2 (0-10 mM), 1 mM DTT, 0.1 mM EDTA, 0.01% bovine serum albumin, 0.005% Tween-20, and 10% DMSO at pH 7.4 for one hour. The reaction is quenched by the addition of 1.2 equivalents of EDTA (relative to divalent cation) in 25 μL of 1× Lance buffer (Perkin-Elmer). Streptavidin-APC (Perkin-Elmer) and Eu-labeled p-Tyr100 antibody (Perkin-Elmer) in 1× Lance buffer are added in a 25 μL volume to give final concentrations of 100 nM and 2.5 nM, respectively, and the mixture is allowed to incubate for one hour. The TR-FRET signal is measured on a multimode plate reader with an excitation wavelength (λEx) of 330 nm and detection wavelengths (λEm) of 615 and 665 nm. Activity is determined by the ratio of the fluorescence at 665 nm to that at 615 nm. For each compound, enzyme activity is measured at various concentrations of compound. Negative control reactions are performed in the absence of inhibitor in replicates of six, and two no-enzyme controls are used to determine baseline fluorescence levels. Inhibition constants, Ki(app), were obtained using the program BatchKi (Kuzmic et al. (2000), Anal. Biochem. 286:45-50). IC50s are obtained according to the equation: IC50=[…]+[E]total/2;
(§2) For all kinases, [ATP]=Km^ATP, [Btk]total=0.5 nM and [Lck]total=6 nM.
(§3) Kinase activity is measured in vitro using electrophoretic mobility shift assay. The kinase reactions are assembled in a total volume of 25 μL in 384 well plates. The reactions comprise: BTK enzyme (1 nM, N-terminal His6-tagged, recombinant, full-length, human BTK purified from baculovirus Sf21 insect cell system), inhibitor, ATP (16 μM, the apparent Km for the kinase), fluorescently labeled peptide substrate (1 μM, FAM-GEEPLYWSFPAKKK-NH2) in a reaction buffer composed of 100 mM HEPES, pH7.5, 5 mM MgCl2 1 mM DTT, 0.1% bovine serum albumin, 0.01% Triton X-100, and 1% DMSO. The reaction is incubated for one hour and is quenched by the addition of 45 μL of termination buffer (100 mM HEPES, pH7.5, 0.01% Triton X-100, 30 mM EDTA). The terminated reactions are analyzed using 12 channel LabChip® 3000 microfluidic detection instrument (Caliper Life Sciences). The enzymatic phosphorylation of the peptide results in a change in net charge, enabling electrophoretic separation of product from substrate peptide. As substrate and product peptides are separated, two peaks of fluorescence are observed. Change in the relative fluorescence intensity of the substrate and product peaks is the parameter measured, reflecting enzyme activity. In the presence of an inhibitor, the ratio between product and substrate is altered:the signal of the product decreases, while the signal of the substrate increases.
(§4) Activity in each sample is determined as the product to sum ratio (PSR):P/(S+P), where P is the peak height of the product peptide and S is the peak height of the substrate peptide. For each compound, enzyme activity is measured at various concentrations (12 concentrations of compound spaced by 3× dilution intervals). Negative control samples (0%-inhibition in the absence of inhibitor) and positive control samples (100%-inhibition, in the presence of 20 mM EDTA) are assembled in replicates of four and are used to calculate %-inhibition values for each inhibitor at each concentration. Percent inhibition (Pinh) is determined using following equation: […]

A further assay addresses EGFR (Homo sapiens, UniProt P00533). Briefly: Kinase panel inhibition, EGFR (one of the methods of Example 76a, 76b, 76c). The procedure:
as §1, §2, §3, §4

The target of a further assay is LCK (Homo sapiens, UniProt P06239). The assay is described as follows: Kinase panel inhibition, LCK (one of the methods of Example 76a, 76b, 76c). The procedure: as §1, §2, §3, §4
Chain of LCK (P06239 whole entry, species assumed): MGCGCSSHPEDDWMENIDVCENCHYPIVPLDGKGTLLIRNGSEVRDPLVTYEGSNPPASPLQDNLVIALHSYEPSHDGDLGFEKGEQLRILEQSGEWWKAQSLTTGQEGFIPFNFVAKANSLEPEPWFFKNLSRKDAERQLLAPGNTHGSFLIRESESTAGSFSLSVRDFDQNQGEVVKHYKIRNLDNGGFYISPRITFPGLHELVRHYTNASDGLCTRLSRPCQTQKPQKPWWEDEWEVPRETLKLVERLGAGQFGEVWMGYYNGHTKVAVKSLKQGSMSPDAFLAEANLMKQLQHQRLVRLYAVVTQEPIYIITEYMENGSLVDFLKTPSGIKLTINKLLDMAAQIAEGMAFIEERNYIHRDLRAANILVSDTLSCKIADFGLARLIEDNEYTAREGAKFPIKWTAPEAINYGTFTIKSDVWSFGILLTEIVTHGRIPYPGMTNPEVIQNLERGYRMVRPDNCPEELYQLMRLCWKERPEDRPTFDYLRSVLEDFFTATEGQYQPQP

Each structure is given as a SMILES string. Where only a bound is given, the exact number is not on record here.

Chain of EGFR (P00533 25-1210, species assumed): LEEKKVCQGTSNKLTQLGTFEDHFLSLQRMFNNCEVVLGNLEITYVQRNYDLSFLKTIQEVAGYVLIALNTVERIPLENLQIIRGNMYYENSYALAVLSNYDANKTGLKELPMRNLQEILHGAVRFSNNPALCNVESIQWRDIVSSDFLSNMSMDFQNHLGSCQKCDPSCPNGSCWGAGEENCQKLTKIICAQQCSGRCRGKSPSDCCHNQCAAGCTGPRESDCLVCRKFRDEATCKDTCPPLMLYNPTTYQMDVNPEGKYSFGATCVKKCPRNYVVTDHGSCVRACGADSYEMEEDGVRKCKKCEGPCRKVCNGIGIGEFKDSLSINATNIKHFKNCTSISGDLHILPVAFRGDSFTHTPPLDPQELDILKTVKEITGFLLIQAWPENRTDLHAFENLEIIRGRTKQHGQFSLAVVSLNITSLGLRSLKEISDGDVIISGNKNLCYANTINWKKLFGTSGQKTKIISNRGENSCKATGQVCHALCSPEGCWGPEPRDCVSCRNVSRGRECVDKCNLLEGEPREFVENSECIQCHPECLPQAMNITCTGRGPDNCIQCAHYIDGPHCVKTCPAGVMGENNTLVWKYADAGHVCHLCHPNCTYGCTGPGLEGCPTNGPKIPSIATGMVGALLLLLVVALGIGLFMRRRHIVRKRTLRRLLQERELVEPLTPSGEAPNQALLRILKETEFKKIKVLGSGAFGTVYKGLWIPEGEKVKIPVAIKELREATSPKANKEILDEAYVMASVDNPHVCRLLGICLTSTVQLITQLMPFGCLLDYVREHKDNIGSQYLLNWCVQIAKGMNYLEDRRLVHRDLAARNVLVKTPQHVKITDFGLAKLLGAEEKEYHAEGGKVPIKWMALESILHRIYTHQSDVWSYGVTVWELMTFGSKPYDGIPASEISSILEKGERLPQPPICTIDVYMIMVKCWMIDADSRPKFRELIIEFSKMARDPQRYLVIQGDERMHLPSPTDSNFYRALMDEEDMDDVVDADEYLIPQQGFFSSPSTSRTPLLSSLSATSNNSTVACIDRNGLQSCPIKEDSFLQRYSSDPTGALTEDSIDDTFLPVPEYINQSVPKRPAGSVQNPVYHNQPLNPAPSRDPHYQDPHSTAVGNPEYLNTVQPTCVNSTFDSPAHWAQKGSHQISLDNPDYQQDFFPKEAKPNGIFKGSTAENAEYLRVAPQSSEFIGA
T1 sequence (Q06187 whole entry): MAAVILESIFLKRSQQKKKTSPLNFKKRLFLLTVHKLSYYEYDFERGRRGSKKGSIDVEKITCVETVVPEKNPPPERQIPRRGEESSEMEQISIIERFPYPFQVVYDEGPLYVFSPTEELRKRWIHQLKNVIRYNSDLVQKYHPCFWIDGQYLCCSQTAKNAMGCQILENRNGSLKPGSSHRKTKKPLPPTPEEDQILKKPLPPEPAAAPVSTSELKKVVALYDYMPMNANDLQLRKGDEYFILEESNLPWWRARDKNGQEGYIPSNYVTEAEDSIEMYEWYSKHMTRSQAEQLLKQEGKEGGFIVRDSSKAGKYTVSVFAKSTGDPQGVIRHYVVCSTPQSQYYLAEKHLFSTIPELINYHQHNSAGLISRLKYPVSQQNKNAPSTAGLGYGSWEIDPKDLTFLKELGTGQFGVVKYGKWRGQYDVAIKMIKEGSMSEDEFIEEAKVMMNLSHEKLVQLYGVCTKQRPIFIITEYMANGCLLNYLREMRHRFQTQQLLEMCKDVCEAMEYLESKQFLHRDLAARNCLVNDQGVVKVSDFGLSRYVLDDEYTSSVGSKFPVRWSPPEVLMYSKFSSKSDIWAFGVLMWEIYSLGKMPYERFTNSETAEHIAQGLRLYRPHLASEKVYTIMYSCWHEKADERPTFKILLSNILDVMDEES

For the molecule `CN(C)C/C=C/C(=O)Nc1cccc(-n2c(=O)n(-c3ccc(Oc4ccccc4)cc3)c3c(N)ncnc32)c1` [Compound 8, (E)-N-(3-(6-amino-8-oxo-7-(4-phenoxyphenyl)-7H-purin-9(8H)-yl)phenyl)-4-(dimethylamino)but-2-enamide], the IC50 at BTK is below 0.1 µM; against EGFR, below 0.1 µM; against LCK, 0.1 to 1 µM.

On to `CN(C/C=C/C(=O)Nc1cccc(-n2c(=O)n(-c3ccc(Oc4ccccc4)cc3)c3c(N)ncnc32)c1)C1CC1` [Compound 9, (E)-N-(3-(6-amino-8-oxo-7-(4-phenoxyphenyl)-7H-purin-9(8H)-yl)phenyl)-4-(cyclopropyl(methyl)amino)but-2-enamide], for which the figures for the IC50 against BTK, against EGFR and at LCK were below 0.1 µM, below 0.1 µM and 0.1 to 1 µM, respectively. As to `CN(C/C=C/C(=O)Nc1cccc(-n2c(=O)n(-c3ccc(Oc4ccccc4)cc3)c3c(N)ncnc32)c1)C1CCC1` [Compound 10, (E)-N-(3-(6-amino-8-oxo-7-(4-phenoxyphenyl)-7H-purin-9(8H)-yl)phenyl)-4-(cyclobutyl(methyl)amino)but-2-enamide], the IC50 is below 0.1 µM on BTK, below 0.1 µM against EGFR and 0.1 to 1 µM on LCK.

Regarding `C=CC(=O)Nc1cccc(-n2c(=O)n(-c3ccc(Oc4ccccc4)cc3)c3c(N)ncnc32)c1` [Compound 11, N-(3-(6-amino-8-oxo-7-(4-phenoxyphenyl)-7H-purin-9(8H)-yl)phenyl)acrylamide], the IC50 on BTK, on EGFR and at LCK was below 0.1 µM each time. On to `CN(C)C/C=C/C(=O)Nc1cccc(-n2c(=O)n(-c3ccc(Cl)cc3)c3c(N)ncnc32)c1` [Compound 14, (E)-N-(3-(6-amino-7-(4-chlorophenyl)-8-oxo-7H-purin-9(8H)-yl)phenyl)-4-(dimethylamino)but-2-enamide], for which the values for the half-inhibitory concentration (IC50) against BTK, against EGFR and at LCK were below 0.1 µM, 1 to 10 µM and 1 to 10 µM, respectively. Turning to `COc1cc(-n2c(=O)n(-c3cccc(NC(=O)/C=C/CN(C)C)c3)c3ncnc(N)c32)ccc1C` [Compound 17, (E)-N-(3-(6-amino-7-(3-methoxy-4-methylphenyl)-8-oxo-7H-purin-9(8H)-yl)phenyl)-4-(dimethylamino)but-2-enamide], the IC50 at BTK was below 0.1 µM; at EGFR it was 1 to 10 µM; against LCK it was 1 to 10 µM. For `CN(C)C/C=C/C(=O)N(C)c1cccc(-n2c(=O)n(-c3ccc(Cl)cc3)c3c(N)ncnc32)c1` [Compound 27, (E)-N-(3-(6-amino-7-(4-chlorophenyl)-8-oxo-7H-purin-9(8H)-yl)phenyl)-4-(dimethylamino)-N-methylbut-2-enamide], the IC50 at BTK is below 0.1 µM; on EGFR it was above 10 µM; against LCK it was above 10 µM. As to `CN(C(=O)/C=C/CN(C)C1CCC1)c1cccc(-n2c(=O)n(-c3ccc(Oc4ccccc4)cc3)c3c(N)ncnc32)c1` [Compound 35, (E)-N-(3-(6-amino-8-oxo-7-(4-phenoxyphenyl)-7H-purin-9(8H)-yl)phenyl)-4-(cyclobutyl(methyl)amino)-N-methylbut-2-enamide], the half-maximal inhibitory concentration (IC50) at BTK was below 0.1 µM.

Turning to `C=CC(=O)N(C)c1cccc(-n2c(=O)n(-c3ccc(C)c(OC)c3)c3c(N)ncnc32)c1` [Compound 76, N-(3-(6-amino-7-(3-methoxy-4-methylphenyl)-8-oxo-7H-purin-9(8H)-yl)phenyl)-N-methylacrylamide], the concentration for half-maximal inhibition (IC50) against BTK is below 0.1 µM. Molecule `C=CC(=O)N(C)c1cccc(-n2c(=O)n(-c3ccc(Cl)cc3)c3c(N)ncnc32)c1` [Compound 77, N-(3-(6-amino-7-(4-chlorophenyl)-8-oxo-7H-purin-9(8H)-yl)phenyl)-N-methylacrylamide] gave an IC50 against BTK below 0.1 µM.

`C=CC(=O)N1CC[C@@H](n2c(=O)n(-c3ccc(Cl)cc3)c3c(N)ncnc32)C1` [Compound 78, (R)-9-(1-acryloylpyrrolidin-3-yl)-6-amino-7-(4-chlorophenyl)-7H-purin-8(9H)-one] registered a half-maximal inhibitory concentration (IC50) against BTK below 0.1 µM. With `C=CC(=O)N1CC[C@@H](n2c(=O)n(-c3ccc(C)c(OC)c3)c3c(N)ncnc32)C1` [Compound 82, (R)-9-(1-acryloylpyrrolidin-3-yl)-6-amino-7-(3-methoxy-4-methylphenyl)-7H-purin-8(9H)-one], the half-maximal inhibitory concentration (IC50) at BTK is below 0.1 µM. `C=CC(=O)N1CCC[C@@H](n2c(=O)n(-c3ccc(Cl)cc3)c3c(N)ncnc32)C1` [Compound 90, (R)-9-(1-acryloylpiperidin-3-yl)-6-amino-7-(4-chlorophenyl)-7H-purin-8(9H)-one] gave an IC50 against BTK below 0.1 µM. Turning to `C=CC(=O)N1CCC[C@@H](n2c(=O)n(-c3ccc(C)c(OC)c3)c3c(N)ncnc32)C1` [Compound 93, (R)-9-(1-acryloylpiperidin-3-yl)-6-amino-7-(3-methoxy-4-methylphenyl)-7H-purin-8(9H)-one], on BTK, the half-inhibitory concentration (IC50) is below 0.1 µM. Consider `Nc1ncnc2c1n(-c1ccc(Oc3ccccc3)cc1)c(=O)n2-c1cccc(NC(=O)/C=C/CNC2CC2)c1` [Compound 116, (E)-N-(3-(6-amino-8-oxo-7-(4-phenoxyphenyl)-7H-purin-9(8H)-yl)phenyl)-4-(cyclopropylamino)but-2-enamide], for which, at BTK, the IC50 was below 0.1 µM. On the same count and under the same terms, the value for `COc1ccc(N(C)C(=O)/C=C/CN(C)C2CC2)cc1-n1c(=O)n(-c2ccc(Oc3ccccc3)cc2)c2c(N)ncnc21` [Compound 181, (E)-N-(3-(6-amino-8-oxo-7-(4-phenoxyphenyl)-7H-purin-9(8H)-yl)-4-methoxyphenyl)-4-(cyclopropyl(methyl)amino)-N-methylbut-2-enamide] was 0.1 to 1 µM.

Regarding `COc1cc(NC(=O)/C=C/CN(C)C2CC2)cc(-n2c(=O)n(-c3ccc(Oc4ccccc4)cc3)c3c(N)ncnc32)c1` [Compound 263, (E)-N-(3-(6-amino-8-oxo-7-(4-phenoxyphenyl)-7H-purin-9(8H)-yl)-5-methoxyphenyl)-4-(cyclopropyl(methyl)amino)but-2-enamide], on BTK, the IC50 is below 0.1 µM.

Regarding `CN(C(=O)/C=C/CN(C)C1CC1)c1cccc(-n2c(=O)n(-c3ccc(Oc4ccc(O)cc4)cc3)c3c(N)ncnc32)c1` [Compound 269, (E)-N-(3-(6-amino-7-(4-(4-hydroxyphenoxy)phenyl)-8-oxo-7H-purin-9(8H)-yl)phenyl)-4-(cyclopropyl(methyl)amino)-N-methylbut-2-enamide], on BTK, the IC50 is below 0.1 µM.

On BTK, `CN(C(=O)/C=C/CN(C)C1CC1)c1cccc(-n2c(=O)n(-c3ccc(NC(=O)c4ccccc4)cc3)c3c(N)ncnc32)c1` [Compound 274, (E)-N-(4-(6-amino-9-(3-(4-(cyclopropyl(methyl)amino)-N-methylbut-2-enamido)phenyl)-8-oxo-8,9-dihydro-7H-purin-7-yl)phenyl)benzamide] showed an IC50 below 0.1 µM. With `CN(C(=O)/C=C/CN(C)C1CC1)c1cccc(-n2c(=O)n(-c3ccc(C(=O)Nc4ccccc4)cc3)c3c(N)ncnc32)c1` [Compound 280, (E)-4-(6-amino-9-(3-(4-(cyclopropyl(methyl)amino)-N-methylbut-2-enamido)phenyl)-8-oxo-8,9-dihydro-7H-purin-7-yl)-N-phenylbenzamide], at BTK, the half-maximal inhibitory concentration (IC50) lay in the range of 0.1 to 1 µM. Molecule `CN(C(=O)/C=C/CN)c1cccc(-n2c(=O)n(-c3ccc(Oc4ccccc4)cc3)c3c(N)ncnc32)c1` [Compound 326, (E)-4-amino-N-(3-(6-amino-8-oxo-7-(4-phenoxyphenyl)-7H-purin-9(8H)-yl)phenyl)-N-methylbut-2-enamide] returned a 50% inhibitory concentration (IC50) against BTK of 0.1 to 1 µM.

Values taken from patent US9469642B2, “Purinone compounds as kinase inhibitors” (Pharmacyclics LLC, priority 2012, dated 2016).
